Assays:
Assay in all cases: kinome screen (33PanQinase)
Assay type in all cases: biochemical
[1] = biological target: T1, ERK7 (Homo sapiens, UniProt Q8TD08)
T1 construct: purchased Reaction Biology Europe GmbH (formerly ProQinase)
T1 sequence (Q8TD08 1-544): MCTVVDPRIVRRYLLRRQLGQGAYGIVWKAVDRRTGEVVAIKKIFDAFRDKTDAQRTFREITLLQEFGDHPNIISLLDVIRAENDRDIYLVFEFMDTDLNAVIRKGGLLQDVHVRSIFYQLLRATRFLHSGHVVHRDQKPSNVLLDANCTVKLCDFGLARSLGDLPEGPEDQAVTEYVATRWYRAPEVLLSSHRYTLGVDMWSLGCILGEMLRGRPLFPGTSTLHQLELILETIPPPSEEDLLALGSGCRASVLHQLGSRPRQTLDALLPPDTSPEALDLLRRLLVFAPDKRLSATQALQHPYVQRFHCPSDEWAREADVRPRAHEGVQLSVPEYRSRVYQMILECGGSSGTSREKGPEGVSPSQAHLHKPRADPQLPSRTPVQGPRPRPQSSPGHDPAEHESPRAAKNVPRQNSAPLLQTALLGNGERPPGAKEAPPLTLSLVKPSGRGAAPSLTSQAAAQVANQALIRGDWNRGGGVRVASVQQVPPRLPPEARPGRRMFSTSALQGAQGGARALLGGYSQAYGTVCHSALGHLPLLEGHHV
Experimental: (§1) The Kinome Screening was performed by Reaction Biology Europe GmbH (http://reactionbiology.com; Freiburg i. Br., Germany).

[2] = biological target: T2, LRRK2 (Homo sapiens, UniProt Q5S007)
T2 construct: purchased Reaction Biology Europe GmbH (formerly ProQinase)
T2 sequence (Q5S007 whole entry): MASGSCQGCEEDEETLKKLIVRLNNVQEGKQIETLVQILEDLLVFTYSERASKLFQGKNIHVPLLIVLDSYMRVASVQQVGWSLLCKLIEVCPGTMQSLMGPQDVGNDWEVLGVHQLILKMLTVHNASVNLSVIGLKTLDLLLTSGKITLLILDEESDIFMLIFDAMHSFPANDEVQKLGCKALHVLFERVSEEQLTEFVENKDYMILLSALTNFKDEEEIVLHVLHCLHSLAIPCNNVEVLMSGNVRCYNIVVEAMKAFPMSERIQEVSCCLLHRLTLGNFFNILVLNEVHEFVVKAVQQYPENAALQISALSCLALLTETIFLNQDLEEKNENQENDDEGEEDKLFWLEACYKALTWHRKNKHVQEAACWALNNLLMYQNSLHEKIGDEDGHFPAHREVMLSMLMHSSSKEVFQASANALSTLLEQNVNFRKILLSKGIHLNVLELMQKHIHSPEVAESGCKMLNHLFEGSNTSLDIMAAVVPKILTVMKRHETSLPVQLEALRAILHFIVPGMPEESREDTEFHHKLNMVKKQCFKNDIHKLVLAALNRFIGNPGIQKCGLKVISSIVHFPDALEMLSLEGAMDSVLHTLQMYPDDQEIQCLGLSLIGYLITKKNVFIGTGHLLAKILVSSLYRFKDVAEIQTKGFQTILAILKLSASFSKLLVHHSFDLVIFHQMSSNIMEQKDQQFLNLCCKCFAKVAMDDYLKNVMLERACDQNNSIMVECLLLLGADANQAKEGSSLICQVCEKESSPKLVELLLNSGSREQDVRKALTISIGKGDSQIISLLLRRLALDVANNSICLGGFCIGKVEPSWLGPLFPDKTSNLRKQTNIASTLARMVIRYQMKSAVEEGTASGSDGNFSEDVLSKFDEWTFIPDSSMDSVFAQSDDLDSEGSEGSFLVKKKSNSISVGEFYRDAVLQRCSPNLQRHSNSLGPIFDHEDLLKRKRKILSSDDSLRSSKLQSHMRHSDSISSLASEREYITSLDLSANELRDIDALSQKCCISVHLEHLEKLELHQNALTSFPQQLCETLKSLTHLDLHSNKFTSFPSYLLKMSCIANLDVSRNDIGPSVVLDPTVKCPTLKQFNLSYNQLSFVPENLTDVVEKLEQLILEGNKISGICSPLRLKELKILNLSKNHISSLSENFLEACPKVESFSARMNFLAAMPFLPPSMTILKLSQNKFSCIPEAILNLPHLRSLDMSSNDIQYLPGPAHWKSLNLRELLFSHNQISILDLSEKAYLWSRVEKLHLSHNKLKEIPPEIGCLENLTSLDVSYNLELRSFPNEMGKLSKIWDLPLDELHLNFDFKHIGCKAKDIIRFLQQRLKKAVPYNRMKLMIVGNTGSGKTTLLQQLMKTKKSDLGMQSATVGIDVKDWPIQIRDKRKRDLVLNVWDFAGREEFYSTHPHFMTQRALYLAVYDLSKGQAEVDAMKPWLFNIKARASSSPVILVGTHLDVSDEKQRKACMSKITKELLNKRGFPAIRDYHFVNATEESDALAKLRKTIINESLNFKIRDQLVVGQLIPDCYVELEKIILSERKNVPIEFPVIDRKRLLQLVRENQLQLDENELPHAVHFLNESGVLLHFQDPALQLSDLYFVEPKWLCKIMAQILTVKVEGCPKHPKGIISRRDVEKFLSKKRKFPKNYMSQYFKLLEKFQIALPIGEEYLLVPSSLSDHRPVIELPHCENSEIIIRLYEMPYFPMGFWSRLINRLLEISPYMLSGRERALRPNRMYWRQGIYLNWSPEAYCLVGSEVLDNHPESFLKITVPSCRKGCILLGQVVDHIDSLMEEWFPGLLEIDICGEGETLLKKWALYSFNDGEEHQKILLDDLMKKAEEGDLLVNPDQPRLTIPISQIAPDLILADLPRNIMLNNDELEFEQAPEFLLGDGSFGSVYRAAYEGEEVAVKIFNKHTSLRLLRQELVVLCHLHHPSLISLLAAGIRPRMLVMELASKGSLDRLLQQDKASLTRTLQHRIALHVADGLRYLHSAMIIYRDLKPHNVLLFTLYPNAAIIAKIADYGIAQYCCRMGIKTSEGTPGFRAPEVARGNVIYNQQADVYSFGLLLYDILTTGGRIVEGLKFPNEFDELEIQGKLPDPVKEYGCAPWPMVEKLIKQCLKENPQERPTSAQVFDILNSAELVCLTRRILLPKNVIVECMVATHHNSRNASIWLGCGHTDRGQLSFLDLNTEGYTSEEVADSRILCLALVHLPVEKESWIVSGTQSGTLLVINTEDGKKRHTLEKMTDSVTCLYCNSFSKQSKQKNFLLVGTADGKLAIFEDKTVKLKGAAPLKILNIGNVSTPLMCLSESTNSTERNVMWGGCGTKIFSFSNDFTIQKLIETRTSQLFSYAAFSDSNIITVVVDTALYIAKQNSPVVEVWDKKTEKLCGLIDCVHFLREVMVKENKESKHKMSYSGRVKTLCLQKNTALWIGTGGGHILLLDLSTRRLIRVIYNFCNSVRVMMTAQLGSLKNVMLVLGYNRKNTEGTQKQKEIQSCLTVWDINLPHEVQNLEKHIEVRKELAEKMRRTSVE
Experimental: as §1

[3] = biological target: T3, AuroraC (Homo sapiens, UniProt Q9UQB9)
T3 construct: purchased Reaction Biology Europe GmbH (formerly ProQinase)
T3 sequence (Q9UQB9 1-309): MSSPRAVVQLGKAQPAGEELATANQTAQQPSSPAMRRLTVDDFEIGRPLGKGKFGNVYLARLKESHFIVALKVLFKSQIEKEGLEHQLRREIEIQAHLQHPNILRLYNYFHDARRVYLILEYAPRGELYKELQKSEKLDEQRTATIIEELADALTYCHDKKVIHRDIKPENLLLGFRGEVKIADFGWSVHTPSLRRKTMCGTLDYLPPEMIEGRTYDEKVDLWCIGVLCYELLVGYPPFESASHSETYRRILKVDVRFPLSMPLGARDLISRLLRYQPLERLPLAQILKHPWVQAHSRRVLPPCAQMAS
Experimental: as §1

[4] = biological target: T4, ULK2 (Homo sapiens, UniProt Q8IYT8)
T4 construct: purchased Reaction Biology Europe GmbH (formerly ProQinase)
T4 sequence (Q8IYT8 1-1036): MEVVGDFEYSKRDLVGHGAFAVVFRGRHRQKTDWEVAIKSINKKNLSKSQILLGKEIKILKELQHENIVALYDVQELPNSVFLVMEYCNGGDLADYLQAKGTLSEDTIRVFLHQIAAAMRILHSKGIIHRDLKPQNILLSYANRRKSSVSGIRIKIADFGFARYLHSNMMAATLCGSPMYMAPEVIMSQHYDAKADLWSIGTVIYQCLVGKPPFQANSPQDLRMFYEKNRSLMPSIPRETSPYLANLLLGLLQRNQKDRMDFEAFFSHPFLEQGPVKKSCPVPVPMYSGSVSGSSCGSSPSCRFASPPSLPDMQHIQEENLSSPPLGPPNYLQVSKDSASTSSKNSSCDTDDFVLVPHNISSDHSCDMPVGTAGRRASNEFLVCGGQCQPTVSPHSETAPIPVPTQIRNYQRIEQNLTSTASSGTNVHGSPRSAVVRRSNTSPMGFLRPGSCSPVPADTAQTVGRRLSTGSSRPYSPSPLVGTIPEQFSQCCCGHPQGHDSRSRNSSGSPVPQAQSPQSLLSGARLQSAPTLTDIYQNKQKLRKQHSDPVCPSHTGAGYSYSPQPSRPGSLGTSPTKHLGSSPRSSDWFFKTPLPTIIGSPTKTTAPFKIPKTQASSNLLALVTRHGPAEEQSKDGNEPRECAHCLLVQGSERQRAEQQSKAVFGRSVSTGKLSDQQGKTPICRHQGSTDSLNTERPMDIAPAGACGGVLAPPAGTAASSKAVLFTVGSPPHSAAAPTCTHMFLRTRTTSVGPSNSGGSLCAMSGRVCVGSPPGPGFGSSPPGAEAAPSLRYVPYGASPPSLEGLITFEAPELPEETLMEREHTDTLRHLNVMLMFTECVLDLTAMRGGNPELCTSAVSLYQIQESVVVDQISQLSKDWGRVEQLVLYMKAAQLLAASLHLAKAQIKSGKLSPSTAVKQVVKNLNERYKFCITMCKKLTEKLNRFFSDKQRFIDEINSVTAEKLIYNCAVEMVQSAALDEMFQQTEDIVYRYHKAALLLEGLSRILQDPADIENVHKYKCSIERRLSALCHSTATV
Experimental: as §1

[5] = biological target: T5, IKKε (Homo sapiens, UniProt Q14164)
T5 construct: purchased Reaction Biology Europe GmbH (formerly ProQinase)
T5 sequence (Q14164 1-716): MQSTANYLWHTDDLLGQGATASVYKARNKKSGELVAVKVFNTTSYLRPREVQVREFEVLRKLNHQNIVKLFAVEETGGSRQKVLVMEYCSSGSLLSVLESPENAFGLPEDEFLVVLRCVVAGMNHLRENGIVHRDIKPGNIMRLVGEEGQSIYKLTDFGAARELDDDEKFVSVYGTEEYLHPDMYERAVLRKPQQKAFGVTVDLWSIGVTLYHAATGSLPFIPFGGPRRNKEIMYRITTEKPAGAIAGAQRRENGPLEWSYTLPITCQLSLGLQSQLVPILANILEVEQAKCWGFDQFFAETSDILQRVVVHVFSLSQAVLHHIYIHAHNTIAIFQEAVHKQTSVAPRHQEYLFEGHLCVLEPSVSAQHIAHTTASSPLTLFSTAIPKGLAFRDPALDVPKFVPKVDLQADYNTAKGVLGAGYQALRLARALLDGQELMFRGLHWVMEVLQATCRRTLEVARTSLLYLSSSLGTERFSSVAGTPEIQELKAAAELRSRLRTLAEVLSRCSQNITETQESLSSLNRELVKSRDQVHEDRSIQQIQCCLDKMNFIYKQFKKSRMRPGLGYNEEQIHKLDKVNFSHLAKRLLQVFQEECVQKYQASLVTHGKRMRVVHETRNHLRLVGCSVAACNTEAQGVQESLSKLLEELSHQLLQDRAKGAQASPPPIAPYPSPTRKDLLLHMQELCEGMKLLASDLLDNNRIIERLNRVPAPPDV
Experimental: as §1

[6] = biological target: T6, CSK (Homo sapiens, UniProt P41240)
T6 construct: purchased Reaction Biology Europe GmbH (formerly ProQinase)
T6 sequence (P41240 whole entry): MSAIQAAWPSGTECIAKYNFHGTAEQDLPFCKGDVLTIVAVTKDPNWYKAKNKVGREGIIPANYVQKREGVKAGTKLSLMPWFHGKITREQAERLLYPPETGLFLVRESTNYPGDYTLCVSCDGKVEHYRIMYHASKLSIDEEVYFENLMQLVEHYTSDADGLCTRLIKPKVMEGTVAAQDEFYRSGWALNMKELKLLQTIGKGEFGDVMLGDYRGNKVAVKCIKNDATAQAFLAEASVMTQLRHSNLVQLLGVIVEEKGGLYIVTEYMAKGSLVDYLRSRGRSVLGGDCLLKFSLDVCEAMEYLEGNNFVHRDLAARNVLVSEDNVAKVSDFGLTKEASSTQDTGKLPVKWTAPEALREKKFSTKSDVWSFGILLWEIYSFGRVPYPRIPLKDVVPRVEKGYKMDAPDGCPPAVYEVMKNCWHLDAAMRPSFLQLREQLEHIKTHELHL
Experimental: as §1

[7] = biological target: T7, ZAK (Homo sapiens, UniProt Q9NYL2)
T7 construct: purchased Reaction Biology Europe GmbH (formerly ProQinase)
T7 sequence (Q9NYL2 whole entry): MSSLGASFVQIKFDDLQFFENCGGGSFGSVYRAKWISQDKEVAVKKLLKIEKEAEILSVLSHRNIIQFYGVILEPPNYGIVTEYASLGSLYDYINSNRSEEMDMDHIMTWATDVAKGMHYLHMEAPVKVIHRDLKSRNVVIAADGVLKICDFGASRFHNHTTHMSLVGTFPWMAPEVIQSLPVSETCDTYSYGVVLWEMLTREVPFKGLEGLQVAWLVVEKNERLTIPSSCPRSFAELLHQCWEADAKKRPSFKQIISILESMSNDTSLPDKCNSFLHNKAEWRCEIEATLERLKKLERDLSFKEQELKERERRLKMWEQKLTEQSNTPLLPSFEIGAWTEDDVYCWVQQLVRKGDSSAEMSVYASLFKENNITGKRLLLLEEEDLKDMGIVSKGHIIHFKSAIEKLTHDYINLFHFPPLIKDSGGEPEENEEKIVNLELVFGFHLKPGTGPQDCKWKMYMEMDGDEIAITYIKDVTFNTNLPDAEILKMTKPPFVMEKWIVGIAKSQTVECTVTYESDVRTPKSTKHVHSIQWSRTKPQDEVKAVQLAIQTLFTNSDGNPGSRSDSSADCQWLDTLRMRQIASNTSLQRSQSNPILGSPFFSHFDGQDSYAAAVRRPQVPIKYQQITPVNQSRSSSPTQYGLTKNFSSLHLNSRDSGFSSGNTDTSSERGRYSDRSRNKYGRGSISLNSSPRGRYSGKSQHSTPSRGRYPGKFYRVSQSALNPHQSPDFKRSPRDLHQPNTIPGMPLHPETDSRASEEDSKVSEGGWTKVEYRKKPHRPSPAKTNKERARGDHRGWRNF
Experimental: as §1

Structure (SMILES)	residual kinase activity ([1]; 0.3 µM)	residual kinase activity ([2]; 0.3 µM)	residual kinase activity ([3]; 0.3 µM)	residual kinase activity ([4]; 0.3 µM)	residual kinase activity ([5]; 0.3 µM)	residual kinase activity ([6]; 0.3 µM)	residual kinase activity ([7]; 0.3 µM)	other results
c1ccc(CNc2cc(-c3c[nH]c4ncccc34)ccn2)cc1 [meriolin 36]	7 % of control	1 % of control	76 % of control	82 % of control	40 % of control	116 % of control	57 % of control	residual kinase activity ([1]; 3 µM): -3 % of control; residual kinase activity ([2]; 3 µM): 1 % of control; residual kinase activity ([3]; 3 µM): 41 % of control; residual kinase activity ([4]; 3 µM): 45 % of control; residual kinase activity ([5]; 3 µM): 6 % of control; residual kinase activity ([6]; 3 µM): 71 % of control; residual kinase activity ([7]; 3 µM): 14 % of control
COc1ccnc2[nH]cc(-c3cc(N)nc(N)c3)c12 [meriolin 16]	59 % of control	8 % of control	95 % of control	54 % of control	61 % of control	106 % of control	83 % of control	residual kinase activity ([1]; 0.03 µM): 86 % of control; residual kinase activity ([2]; 0.03 µM): 50 % of control; residual kinase activity ([3]; 0.03 µM): 104 % of control; residual kinase activity ([4]; 0.03 µM): 96 % of control; residual kinase activity ([5]; 0.03 µM): 94 % of control; residual kinase activity ([6]; 0.03 µM): 114 % of control; residual kinase activity ([7]; 0.03 µM): 96 % of control

Reference: paper PMC11167047 (Cell Death Discovery, 2024)
